Laboratory results published in PMC9505031, “Implementation of QbD Approach to the Development of Chromatographic Methods for the Determination of Complete Impurity Profile of Substance on the Preclinical and Clinical Step of Drug Discovery Studies” (International Journal of Molecular Sciences, 2022).
Where two headings read alike, the source gives them in different places.

What was measured:
[1] = Chromatographic hydrophobicity index CHI logD determination (UltraCore SuperC18 column); assay type: physicochemical
Description: Due to this observation and to better characterise elution conditions for method development, it was decided to determine the chromatographic hydrophobicity index CHI logD of CPL409116 and its impurities by the methodology described by Valko et al.. Chromatographic hydrophobicity index CHI logD has been originally used for high-throughput physicochemical property profiling for rational drug design, where determined values strongly correlate to lipophilicity (logP and/or logD) of molecules.
On a basis of determining lipophilicity described by CHI logD at pH 2.6, 7.4 and 10.5 on ACE Ultracore SuperC18 column more valuable data were obtained in a contest of chromatography interactions molecules with stationary phase extended with their acid-base properties (Table 1). Particularly, strong pH dependence on retention factors has been observed for JAK ImpC and also for JAK07, JAK08, and JAK09. Greater differences and a wider range of CHI logD values, calculated on a base of peaks retention times of compounds, in the lower pH range than in the pH 7.4–10.5 range have been observed. The use of mobile phases with a lower pH would allow obtaining higher chromatographic resolutions and higher selectivity of the analytical method.
For the CHI logD determination, separate solutions of all the tested sample were prepared at a concentration of 1 mM in DMSO. Reference mix solutions have a concentration of 1 mM in DMSO.
The CHI logD for JAK01 and its impurities was determined on an UltraCore 2.5 SuperC18 (2.1 × 50 mm, 2.5 µm, ACE) column with eluent A consisting of formic acid (10 mM, pH 2.6), and ammonium acetate (50 mM) buffers with different concentrations of additives were used to prepare buffer solutions of 7.4, and 10.5, and eluent B consisted ACN [58].

[2] = Solubility in aqueous solutions; assay type: physicochemical

chromatographic logD ([1]; pH 2.6, 10 mM formic acid/ACN, read-out: CHILogD pH 2.6): 3.51
chromatographic logD ([1]; pH 7.4, 50 mM ammonium acetate/ACN, read-out: CHILogD pH 7.4): 3.09
chromatographic logD ([1]; pH 10.5, 50 mM ammonium acetate/ACN, read-out: CHILogD pH 10.5): 3.05
Solubility in aqueous solutions ([2]; aqueous solutions): practically insoluble
solubility ([2]; pH 7.4, aqueous buffer, phosphate buffer with a pH of 7.4): < 0.1 µg/mL
Compound: COc1cccc(-c2cc3ncc(C(N)=O)c(N[C@@H]4CCN(c5ccc(C#N)nn5)CC4(C)C)n3n2)n1 [CPL409116]
